Tests used:
Adenosine receptor A2a = Adenosine receptor A2a (Homo sapiens, UniProt P29274); test: Competition Radioligand Binding Assay: A2A Adenosine Receptor: Competitive assays were carried out by incubation of membranes from human A2A receptors transfected to HeLa cells, [3H]-ZM241385, buffer (Tris-HCl 50 mM (pH=7.4), 10 mM MgCl2, EDTA 1 mM and 2 units/ml adenosine deaminase), and unlabelled ligand in a total volume of 0.2 ml for 60 min at 25° C. NECA was used to determine nonspecific binding. It was filtered over Schleicher & Schuell GF/52 (presoaked with 0.5% polyethyleneimine) in a Brandel cell harvester. The unbound radioligand was removed with 3×250 μl of 20 mM Tris-HCl 50 mM (pH=7.4), 10 mM MgCl2, EDTA 1 mM.
Adenosine receptor A2a, sequence (P29274 whole entry): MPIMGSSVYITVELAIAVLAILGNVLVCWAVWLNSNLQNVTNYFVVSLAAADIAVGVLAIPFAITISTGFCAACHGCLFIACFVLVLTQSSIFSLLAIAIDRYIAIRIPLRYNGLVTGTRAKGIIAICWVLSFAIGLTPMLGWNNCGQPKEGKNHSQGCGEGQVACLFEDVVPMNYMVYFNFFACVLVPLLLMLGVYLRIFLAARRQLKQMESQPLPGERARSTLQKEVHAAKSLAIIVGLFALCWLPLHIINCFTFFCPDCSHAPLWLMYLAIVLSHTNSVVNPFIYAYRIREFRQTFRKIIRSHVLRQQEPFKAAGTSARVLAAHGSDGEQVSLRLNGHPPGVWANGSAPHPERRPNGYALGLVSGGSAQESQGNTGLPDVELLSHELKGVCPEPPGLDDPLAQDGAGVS

Adenosine receptor A1 = target: T1, Adenosine receptor A1 (Homo sapiens, UniProt P30542); test: Competition Radioligand Binding Assay: Adenosine A1 Receptor: Competition assays were carried out by incubation of human recombinant membranes of adenosine receptors from hA1 receptors transfected to CHO cells, [3H] DPCPX as radioligand, buffer (HEPES 20 mM (pH=7.4), 10 mM MgCl2, 100 mM NaCl, 2 U/mL of deaminase adenosine and non-labelled ligand in a total volume of 0.2 mL for 90 min at 25° C. R-PIA was used to determinate non-specific binding. Filter over Schleicher & Schuell GF/52 (pre-soaked 0.5% polyethylenimine) in a Brandel cell harvester. Unbound radioligand was removed with HEPES 30 mM (3×250 μl), NaCl (100 mM) and MgCl2 (10 mM).
T1 sequence (P30542 whole entry): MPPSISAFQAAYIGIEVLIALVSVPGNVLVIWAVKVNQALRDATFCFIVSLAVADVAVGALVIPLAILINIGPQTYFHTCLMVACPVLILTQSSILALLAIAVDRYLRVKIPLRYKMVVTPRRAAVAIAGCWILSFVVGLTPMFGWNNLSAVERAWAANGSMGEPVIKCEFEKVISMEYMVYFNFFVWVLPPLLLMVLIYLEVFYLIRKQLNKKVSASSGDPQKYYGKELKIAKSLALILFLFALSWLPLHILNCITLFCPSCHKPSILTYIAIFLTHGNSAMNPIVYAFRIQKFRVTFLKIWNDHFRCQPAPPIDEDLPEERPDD

Adenosine receptor A2b = target: T2, Adenosine receptor A2b (Homo sapiens, UniProt P29275); test: Competition Radioligand Binding Assay: A2B Adenosine Receptor: The binding assay for adenosine A2B receptor subtype was carried out on human recombinant source (HEK-293 cells) and [3H]DPCPX as radioligand.
T2 sequence (P29275 whole entry): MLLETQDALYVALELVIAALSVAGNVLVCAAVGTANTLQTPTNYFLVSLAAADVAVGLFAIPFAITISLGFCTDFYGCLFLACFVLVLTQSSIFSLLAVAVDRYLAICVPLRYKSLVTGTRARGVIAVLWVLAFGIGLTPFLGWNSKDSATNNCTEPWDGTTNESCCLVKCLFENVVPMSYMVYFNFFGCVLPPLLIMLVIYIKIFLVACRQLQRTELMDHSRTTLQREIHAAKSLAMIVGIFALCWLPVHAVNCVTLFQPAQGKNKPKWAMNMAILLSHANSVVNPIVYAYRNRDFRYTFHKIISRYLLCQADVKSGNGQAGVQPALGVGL

Adenosine receptor A3 = target: T3, Adenosine receptor A3 (Homo sapiens, UniProt P0DMS8); test: Competition Radioligand Binding Assay: A3 Adenosine Receptor:Competitive assays were carried out by incubation of membranes from human A3 receptors transfected to CHO cells, [3H]-NECA, buffer (20 mM HEPES (pH 7.4), 100 mM NaCl, 10 mM MgCl2, 2 units/ml adenosine deaminase), and unlabelled ligand in a total volume of 0.2 ml for 60 min at 25° C. R-PIA was used to determine nonspecific binding. It was filtered over Schleicher & Schuell GF/52 (presoaked with 0.5% polyethyleneimine) in a Brandel cell harvester. The unbound radioligand was removed with 3×250 μl of 20 mM HEPES (pH 7.4), 100 mM NaCl, 10 mM MgCl2.
T3 sequence (P0DMS8 whole entry): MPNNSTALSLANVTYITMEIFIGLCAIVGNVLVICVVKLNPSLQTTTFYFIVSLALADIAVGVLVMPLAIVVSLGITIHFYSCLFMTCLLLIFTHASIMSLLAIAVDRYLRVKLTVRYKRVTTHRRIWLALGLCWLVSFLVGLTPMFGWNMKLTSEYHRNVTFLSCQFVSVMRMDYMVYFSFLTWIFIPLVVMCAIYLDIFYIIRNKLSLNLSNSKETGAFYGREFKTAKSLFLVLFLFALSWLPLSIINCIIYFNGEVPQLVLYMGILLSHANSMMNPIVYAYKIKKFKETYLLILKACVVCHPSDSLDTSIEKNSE

Work on `COc1ccc(-c2nc(NC(=O)c3ccc(N4CCC(C(=O)O)CC4)nc3)sc2C#N)cc1` yielded a Ki (Adenosine receptor A2a) of over 1000 nM, a Ki (Adenosine receptor A1) of over 1000 nM and a Ki (Adenosine receptor A2b) of over 1000 nM. The Ki (Adenosine receptor A3) was 47.6 nM.

Source: ChEMBL document CHEMBL5727906, “Adenosine A3 receptor modulators” (2020)
